# Target: T1, SMARCA2 (Homo sapiens, UniProt P51531)
# T1 construct: endogenous in cells; host or cells: HT1080 (CRISPR HiBiT knock-in clone, generated in house)
# Test: SMARCA2 HiBiT degradation assay (cellular)
# Format: cell-based
# Conditions: table head names A549; for DC50: 6 h incubation, HiBiT-tagged SMARCA2, luminescence read-out, read-out: HiBit A549 SMARCA2 IP (nM) 6 h; for Emax: A549, 6 h incubation, Emax = amount of residual protein remaining in the cell following compound treatment
# T1 sequence (P51531 whole entry): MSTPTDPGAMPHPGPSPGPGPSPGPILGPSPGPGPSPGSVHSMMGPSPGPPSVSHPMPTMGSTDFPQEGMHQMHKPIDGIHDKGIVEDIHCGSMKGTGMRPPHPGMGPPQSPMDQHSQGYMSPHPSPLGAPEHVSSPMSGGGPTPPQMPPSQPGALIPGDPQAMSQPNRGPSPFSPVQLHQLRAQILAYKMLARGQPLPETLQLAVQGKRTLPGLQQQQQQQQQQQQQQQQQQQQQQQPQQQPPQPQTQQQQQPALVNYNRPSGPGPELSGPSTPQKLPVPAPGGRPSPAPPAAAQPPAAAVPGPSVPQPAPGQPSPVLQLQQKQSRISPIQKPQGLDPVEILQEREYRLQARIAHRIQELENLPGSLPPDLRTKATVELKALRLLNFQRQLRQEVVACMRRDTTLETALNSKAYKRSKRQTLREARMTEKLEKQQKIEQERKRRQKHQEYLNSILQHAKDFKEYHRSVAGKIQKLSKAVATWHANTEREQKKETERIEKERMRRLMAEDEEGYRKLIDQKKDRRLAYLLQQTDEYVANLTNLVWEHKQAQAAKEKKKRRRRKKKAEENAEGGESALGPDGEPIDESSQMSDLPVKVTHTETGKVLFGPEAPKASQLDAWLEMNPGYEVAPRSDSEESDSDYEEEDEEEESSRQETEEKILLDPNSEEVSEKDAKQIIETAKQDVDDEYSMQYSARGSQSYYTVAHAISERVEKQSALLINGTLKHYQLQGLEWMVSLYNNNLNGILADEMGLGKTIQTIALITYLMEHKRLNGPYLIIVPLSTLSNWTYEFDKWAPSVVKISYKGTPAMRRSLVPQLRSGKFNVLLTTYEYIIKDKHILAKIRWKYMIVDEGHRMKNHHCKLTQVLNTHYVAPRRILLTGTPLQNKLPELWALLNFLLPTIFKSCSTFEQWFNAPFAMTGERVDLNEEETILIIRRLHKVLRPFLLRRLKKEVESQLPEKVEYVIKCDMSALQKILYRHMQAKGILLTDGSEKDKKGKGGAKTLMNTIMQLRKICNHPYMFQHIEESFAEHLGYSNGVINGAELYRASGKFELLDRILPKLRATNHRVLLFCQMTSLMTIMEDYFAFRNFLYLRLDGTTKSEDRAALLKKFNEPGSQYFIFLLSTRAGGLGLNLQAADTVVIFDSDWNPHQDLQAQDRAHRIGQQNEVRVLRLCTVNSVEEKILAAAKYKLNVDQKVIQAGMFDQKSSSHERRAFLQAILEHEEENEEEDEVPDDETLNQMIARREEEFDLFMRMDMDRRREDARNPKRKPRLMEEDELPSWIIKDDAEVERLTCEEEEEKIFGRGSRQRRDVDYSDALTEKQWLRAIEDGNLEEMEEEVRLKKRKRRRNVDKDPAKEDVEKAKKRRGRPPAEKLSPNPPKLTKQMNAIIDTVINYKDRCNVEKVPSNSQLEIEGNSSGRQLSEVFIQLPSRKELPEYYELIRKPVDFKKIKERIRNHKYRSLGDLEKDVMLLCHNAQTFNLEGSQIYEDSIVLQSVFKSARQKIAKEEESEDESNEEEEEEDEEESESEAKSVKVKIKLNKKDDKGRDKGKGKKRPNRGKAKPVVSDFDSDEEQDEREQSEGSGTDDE
SMILES,DC50,Emax
"Nc1nnc(-c2ccccc2O)cc1OC1CCCN(c2ccc(N3CCN(C(=O)CCCCCCCCCCCCCCn4cc(CNc5cccc6c5C(=O)N(C5CCC(=O)NC5=O)C6=O)nn4)CC3)cc2)C1 (stereo not shown) [Example 8, 4-[[1-[15-[4-[4-[3-[3-amino-6-(2-hydroxyphenyl)pyridazin-4-yl]oxy-1-piperidyl]phenyl]piperazin-1-yl]-15-oxo-pentadecyl]triazol-4-yl]methylamino]-2-(2,6-dioxo-3-piperidyl)isoindoline-1,3-dione]",254 nM,65%
"Nc1nnc(-c2ccccc2O)cc1N1CC2CCC(C1)N2c1cccc(OCCN2CCN(C(=O)N3CCC(Oc4ccc5c(c4)C(=O)N(C4CCC(=O)NC4=O)C5=O)CC3)CC2)c1 (racemic) [Example 40, rac-5-[[1-[4-[2-[3-[3-[3-amino-6-(2-hydroxyphenyl)pyridazin-4-yl]-3,8-diazabicyclo[3.2.1]octan-8-yl]phenoxy]ethyl]piperazine-1-carbonyl]-4-piperidyl]oxy]-2-(2,6-dioxo-3-piperidyl)isoindoline-1,3-dione]",22 nM,32%
"Nc1nnc(-c2ccccc2O)cc1N1CCC(C(=O)N2CCC(C(=O)N3CCC(c4ccc(NC5CCC(=O)NC5=O)cn4)CC3)CC2)(c2ccccc2)CC1 (stereo not shown) [Example 177, 3-((6-(1-(1-(1-(3-amino-6-(2-hydroxyphenyl)pyridazin-4-yl)-4-phenylpiperidine-4-carbonyl)piperidine-4-carbonyl)piperidin-4-yl)pyridin-3-yl)amino)piperidine-2,6-dione]",174 nM,69%
"Nc1nnc(-c2ccccc2O)cc1N1CC(Oc2cccc(CN3CCN(C(=O)CCC4CCN(c5ccc6c(c5)C(=O)N(C5CCC(=O)NC5=O)C6=O)CC4)CC3)c2)C1 (racemic) [Example 154, rac-5-[4-[3-[4-[[3-[1-[3-amino-6-(2-hydroxyphenyl)pyridazin-4-yl]azetidin-3-yl]oxyphenyl]methyl]piperazin-1-yl]-3-oxo-propyl]-1-piperidyl]-2-(2,6-dioxo-3-piperidyl)isoindoline-1,3-dione]",12 nM,16%
"Nc1nnc(-c2ccccc2O)cc1N1CCC(C(=O)N2CC3(CCN(C(=O)C4CCN(c5ccc6c(c5)C(=O)N(C5CCC(=O)NC5=O)C6=O)CC4)C3)C2)(c2ccccc2)CC1 (stereo not shown) [Example 186, 5-(4-(2-(1-(3-amino-6-(2-hydroxyphenyl)pyridazin-4-yl)-4-phenylpiperidine-4-carbonyl)-2,6-diazaspiro[3.4]octane-6-carbonyl)piperidin-1-yl)-2-(2,6-dioxopiperidin-3-yl)isoindoline-1,3-dione]",148 nM,42%
"Nc1nnc(-c2ccccc2O)cc1OC1CCCN(c2ccc(N3CCN(CCCCCCCCCn4cc(CCCNc5cccc6c5C(=O)N(C5CCC(=O)NC5=O)C6=O)nn4)CC3)cc2)C1 (stereo not shown) [Example 109, 4-[3-[1-[9-[4-[4-[3-[3-amino-6-(2-hydroxyphenyl)pyridazin-4-yl]oxy-1-piperidyl]phenyl]piperazin-1-yl]nonyl]triazol-4-yl]propylamino]-2-(2,6-dioxo-3-piperidyl)isoindoline-1,3-dione]",103 nM,29%
"Nc1nnc(-c2ccccc2O)cc1N1CC2CCC(C1)N2c1cccc(OCCN2CCN(C(=O)CCC(=O)N3CCC(Oc4cccc5c4C(=O)N(C4CCC(=O)NC4=O)C5=O)CC3)CC2)c1 (racemic) [Example 9, rac-4-[[1-[4-[4-[2-[3-[3-[3-amino-6-(2-hydroxyphenyl)pyridazin-4-yl]-3,8-diazabicyclo[3.2.1]octan-8-yl]phenoxy]ethyl]piperazin-1-yl]-4-oxo-butanoyl]-4-piperidyl]oxy]-2-(2,6-dioxo-3-piperidyl)isoindoline-1,3-dione]",339 nM,58%
"Nc1nnc(-c2ccccc2O)cc1N1CCC(NC(=O)CCCN2CCC(c3ccc(OC4CCC(=O)NC4=O)cc3)CC2)(c2ccccc2)CC1 (stereo not shown) [Example 151, N-[1-[3-amino-6-(2-hydroxyphenyl)pyridazin-4-yl]-4-phenyl-4-piperidyl]-4-[4-[4-[(2,6-dioxo-3-piperidyl)oxy]phenyl]-1-piperidyl]butanamide]",855 nM,54%
"Nc1nnc(-c2ccccc2O)cc1N1CC2CCC(C1)N2c1cccc(CN2CCN(C(=O)CC3CCN(c4ccc5c(c4)C(=O)N(C4CCC(=O)NC4=O)C5=O)CC3)CC2)c1 (racemic) [Example 48, rac-5-[4-[2-[4-[[3-[3-[3-Amino-6-(2-hydroxyphenyl)pyridazin-4-yl]-3,8-diazabicyclo[3.2.1]octan-8-yl]phenyl]methyl]piperazin-1-yl]-2-oxo-ethyl]-1-piperidyl]-2-(2,6-dioxo-3-piperidyl)isoindoline-1,3-dione]",15 nM,45%
"Nc1nnc(-c2ccccc2O)cc1N1CC2CCC(C1)N2c1cccc(CN2CCN(C(=O)C3CCN(c4ccc5c(c4)C(=O)N(C4CCC(=O)NC4=O)C5=O)CC3)CC2)n1 (racemic) [Example 131, rac-5-[4-[4-[[6-[3-[3-amino-6-(2-hydroxyphenyl)pyridazin-4-yl]-3,8-diazabicyclo[3.2.1]octan-8-yl]-2-pyridyl]methyl]piperazine-1-carbonyl]-1-piperidyl]-2-(2,6-dioxo-3-piperidyl)isoindoline-1,3-dione]",27 nM,32%
"Nc1nnc(-c2ccccc2O)cc1N1CCC(C(=O)N2CCC(C(=O)N3CCN(c4ccc5c(c4)C(=O)N(C4CCC(=O)NC4=O)C5=O)CC3)CC2)(c2ccccc2)CC1 (stereo not shown) [Example 178, 5-(4-(1-(1-(3-amino-6-(2-hydroxyphenyl)pyridazin-4-yl)-4-phenylpiperidine-4-carbonyl)piperidine-4-carbonyl)piperazin-1-yl)-2-(2,6-dioxopiperidin-3-yl)isoindoline-1,3-dione]",187 nM,46%
"Nc1nnc(-c2ccccc2O)cc1N1CC(Oc2cccc(CN3CCN(C(=O)CN4CCC(c5ccc(NC6CCC(=O)NC6=O)cc5)CC4)CC3)c2)C1 (racemic) [Example 156, rac-3-[4-[1-[2-[4-[[3-[1-[3-amino-6-(2-hydroxyphenyl)pyridazin-4-yl]azetidin-3-yl]oxyphenyl]methyl]piperazin-1-yl]-2-oxo-ethyl]-4-piperidyl]anilino]piperidine-2,6-dione]",3 nM,17%
"Nc1nnc(-c2ccccc2O)cc1N1CCC(C(=O)N2CCC3(CC2)CN(C(=O)COc2ccc4c(c2)C(=O)N(C2CCC(=O)NC2=O)C4=O)CCO3)(c2ccccc2)CC1 (stereo not shown) [Example 166, 5-(2-(9-(1-(3-amino-6-(2-hydroxyphenyl)pyridazin-4-yl)-4-phenylpiperidine-4-carbonyl)-1-oxa-4,9-diazaspiro[5.5]undecan-4-yl)-2-oxoethoxy)-2-(2,6-dioxopiperidin-3-yl)isoindoline-1,3-dione]",607 nM,53%
"Nc1nnc(-c2ccccc2O)cc1N1CCC(C(=O)N2CC3(CCN(C(=O)C4CCN(c5ccc6c(c5)C(=O)N(C5CCC(=O)NC5=O)C6=O)CC4)CC3)C2)(c2ccccc2)CC1 (stereo not shown) [Example 163, 5-(4-(2-(1-(3-amino-6-(2-hydroxyphenyl)pyridazin-4-yl)-4-phenylpiperidine-4-carbonyl)-2,7-diazaspiro[3.5]nonane-7-carbonyl)piperidin-1-yl)-2-(2,6-dioxopiperidin-3-yl)isoindoline-1,3-dione]",22 nM,33%

# From patent US20230024096A1, “BIFUNCTIONAL COMPOUNDS FOR THE TREATMENT OF CANCER” (Hoffmann-La Roche Inc., priority 2019, published 2023)
